# Marks after values point to notes of the source that are not given here.
# Key:
# [1] = system: C57BL/6J mice; assay: Biochemical analysis of serum in dexamethasone-induced muscular atrophy mice; format: in vivo; details: oxymetholone 50 mg/kg oral 8 weeks, DEX mice
# Experimental: (§1) 7-week-old male C57BL/6J mice purchased from OrientBio were used as experimental animals. The environment of an animal breeding room was controlled at temperature of 21±1° C. with relative humidity of 40˜60% and light/dark cycles of 12 hours/day, and feed and drinking water were allowed to be consumed freely. This test was approved by the Institutional Animal Care and Use Committee in Kookmin University (KMU-2023-05) and carried out in accordance with the standard operating instructions. […] Feed ingestion amount and body weight were measured once every two weeks.
# After sacrificing the mice, blood was drawn from the heart and immediately centrifuged (3,000×g, 10 min, 4° C.) to separate the plasma. Creatine phosphokinase (CPK), lactate dehydrogenase (LDH), aspartate aminotransferase (AST), alanine aminotransferase (ALT), and blood urea nitrogen (BUN) were measured using a chemical analyzer (Fuji DRI-CHEM 3500i, Fuji Photo Film, Ltd., Tokyo, Japan).
# [2] = system: intestinal microflora; assay: Intestinal microflora analysis in animal model (shotgun metagenome sequencing); format: in vivo, mice; details: genus level, compared to the DEX group
# Experimental: as §1
# To identify the effect of the sample on the intestinal microbiota of the animal model, the appendix was removed after animal sacrifice, DNA was extracted, and analysis was performed using Shotgun metagenome sequencing. The extracted DNA was subjected to adapter ligation using the Truseq Nano DNA prep kit for sequencing, and then 8 cycles of PCR were performed to create a library. […] Using Trimmomatic v0.39 (AM Bolger, M Lohse, B Usadel, 2014) for raw reads, removal of low-quality reads and adapters was followed, and in order to eliminate PhiX sequences added during sequencing, trimmed reads were aligned to the PhiX reference genome (NC_001422.1) using BWA v0.7.17-r1188 (Li, Heng, 2013) and then removed with SAMtools v1.15.1 (Li, Heng, et al., 2009). […]
# [3] = system: C57BL/6J mice; assay: Body weight and body composition (DEXA) in dexamethasone-induced muscular atrophy mice; format: in vivo; details: week 7, oral; KLP-KM2 900 and 1800 mg/kg, OXM 50 mg/kg; vs DEX group
# Experimental: as §1
# Dual energy X-ray absorptiometry (DEXA; Medikors, Seongnam, Korea) was used at week 7 before the sacrifice of experimental animals to measure the body composition of mice, followed by analysis on the changes in muscle mass relative to the body weight.
structure (smiles),measurement,setting,value
"C[C@]12C/C(=C/O)C(=O)C[C@@H]1CC[C@@H]1[C@@H]2CC[C@@]2(C)[C@H]1CC[C@]2(C)O [OXM, oxymetholone]",ALT,[1],43.75 ± 7.96 ^a U/L
same,AST,[1],58.88 ± 11.73 ^a U/L
same,BUN,[1],24.74 ± 1.47 ^a mg/dL
same,CPK,[1],99.13 ± 35.13 ^b U/L
same,LDH,[1],211.38 ± 46.99 ^b U/L
same,proportion of Akkermansia,[2],significantly reduced
same,muscle mass to the total body weight (DEXA),[3],relatively significant increase compared to the DEX group

# Source: US20250249051A1, “MICROBIOME COMPOSITION FOR IMPROVING MUSCLE STRENGTH USING HEAT-TREATED FERMENTED CULTURE COMPLEX OF LACTIPLANTIBACILLUS PLANTARUM KM2” (KOOKMINBIO, CORP., priority 2024, published 2025)
